# Measured values taken from article PMC7936488, “An efficient system for intestinal on-site butyrate production using novel microbiome-derived esterases” (Journal of Biological Engineering, 2021).
# Columns and labels:
# [1] = biological target: T1, SP_Est (Streptococcus pneumoniae, UniProt A0A0H2UNZ8); test: p-nitrophenol release at […] nm, E. coli tEc cells expressing the gene vs empty vector; format: cell-based; details: whole-cell culture aliquot, 5 min
# T1 construct: gene estA; gene in pBAD24 under tbe1 promoter, E. coli tEc cells, not purified
# T1 sequence (A0A0H2UNZ8 1-259): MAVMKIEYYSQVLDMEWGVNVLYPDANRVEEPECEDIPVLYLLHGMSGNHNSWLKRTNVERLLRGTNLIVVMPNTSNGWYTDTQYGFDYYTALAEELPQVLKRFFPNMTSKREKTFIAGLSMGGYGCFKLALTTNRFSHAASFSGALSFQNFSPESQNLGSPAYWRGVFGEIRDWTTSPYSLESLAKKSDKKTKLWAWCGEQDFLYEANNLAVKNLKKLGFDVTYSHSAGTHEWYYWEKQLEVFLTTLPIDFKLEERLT
# [2] = biological target: T2, LL_Tbe (Lactococcus lactis, UniProt Q9L9X0); test: as above; format: cell-based; details: whole-cell culture aliquot, 5 min
# T2 construct: gene estA; gene in pBAD24 under tbe1 promoter, E. coli tEc cells, not purified
# T2 sequence (Q9L9X0 1-258): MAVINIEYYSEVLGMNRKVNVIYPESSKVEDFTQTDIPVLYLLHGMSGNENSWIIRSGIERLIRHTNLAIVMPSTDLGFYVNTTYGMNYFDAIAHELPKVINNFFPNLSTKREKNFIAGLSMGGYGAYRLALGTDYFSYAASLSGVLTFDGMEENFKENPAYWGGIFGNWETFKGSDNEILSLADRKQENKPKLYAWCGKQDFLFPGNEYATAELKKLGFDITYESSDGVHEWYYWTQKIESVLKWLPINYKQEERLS
smiles,measurement,setting,value
CCCC(=O)Oc1ccc([N+](=O)[O-])cc1 [4-nitrophenyl butyrate],"p-nitrophenol release at 400 nm, E. coli tEc cells expressing the gene vs empty",[1],the esterase of S. pneumoniae was the most potent among the four tested enzymes
same,"p-nitrophenol release at 400 nm, E. coli tEc cells expressing the gene vs empty",[2],Tbe1 demonstrated almost identical activity to the L. lactis enzyme
